From paper PMC10962542, “Inhibition of Aurora‐A/N‐Myc Protein–Protein Interaction Using Peptidomimetics: Understanding the Role of Peptide Cyclization” (Chembiochem, 2023)
*1 amine or outer side, *2 acyl side, *3 side chain or, on linkers, in order; H or OH if unused. Where a SMILES comes first, the peptide text is derived from it. Bridges are numbered along the chain shown (N, C = ends). Maleimide(3,4-diyl) = O=C1NC(=O)C([*:2])=C1[*:1]

Tests used:
[1] = target: T1, N‐Myc/Aurora‐A interaction (Aurora‐A122‐403‐C290A/C393A) (Homo sapiens, UniProt O14965, C290A/C393A); test: competition fluorescence anisotropy (FA) assay against fluorescein labelled N‐Myc61‐89; type: binding; conditions: SD; note: equilibrated 2 h at room temperature
T1 construct: Aurora‐A 122‐403‐C290A/C393A protein was produced as described previously; made in house
T1 sequence (O14965 122-403 C290A/C393A): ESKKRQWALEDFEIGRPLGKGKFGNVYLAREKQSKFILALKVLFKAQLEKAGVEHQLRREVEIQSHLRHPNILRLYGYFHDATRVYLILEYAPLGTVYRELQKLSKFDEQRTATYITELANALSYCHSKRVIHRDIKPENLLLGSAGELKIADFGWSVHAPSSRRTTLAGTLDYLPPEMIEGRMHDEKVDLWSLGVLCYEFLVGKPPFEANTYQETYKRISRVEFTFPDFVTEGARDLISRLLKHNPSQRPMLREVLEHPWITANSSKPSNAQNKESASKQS

[2] = circular dichroism (CD) spectroscopy; type: physicochemical; conditions: 150 mM NaCl, 5 mM MgCl2, pH 7.5, 5 °C, n=2, free‐thiol (red) samples with 5 mol equivalents TCEP; for MRE222 (mean residue ellipticity at 222 nm): 25 mM Tris, mean ± SD, SD; for % Helicity (estimated): from MRE222 by equation 7, 25 mM Tris
Outline: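 Peptides at 30–120 μM in 25 mM Tris, 150 mM NaCl, 5 mM MgCl2, pH 7.5 (plus 5 mol eq. TCEP for free sulfhydryl peptides) were scanned in duplicate at 5 °C from 290 to 180 nm, 1 mm pathlength. Buffer-subtracted ellipticity gave mean residue ellipticity, and % helicity was estimated from MRE at 222 nm.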

[3] = circular dichroism; set-up: unit not given here; conditions: 25 mM Tris, 150 mM NaCl, 5 mM MgCl2; pH 7.5; 5 °C; 30-120 uM

Molecule	IC50 [1] [µM]	MRE222 (mean residue ellipticity at 222 nm) [2] [deg cm^−1 dmol^−1 res^−1]	% Helicity (estimated) [2] [%]	helicity [3]
CSCC[C@H](NC(=O)[C@H](CCC(=O)O)NC(=O)[C@@H](NC(=O)[C@@H](NC(=O)[C@H](Cc1c[nH]c2ccccc12)NC(=O)[C@H](CO)NC(=O)[C@@H]1CCCN1C(=O)[C@@H]1CCCN1C(=O)[C@H](CCC(=O)O)NC(=O)[C@H](CO)NC(=O)[C@H](CO)NC(=O)[C@H](Cc1c[nH]cn1)NC(=O)[C@H](CCC(=O)O)NC(=O)[C@H](C)NC(=O)[C@H](Cc1ccccc1)NC(=O)CNC(=O)[C@H](CCCNC(=N)N)NC(=O)[C@H](CO)NC(=O)[C@@H]1CCCN1C(=O)[C@H](CO)NC(=O)[C@H](CC(C)C)NC(C)=O)C(C)C)[C@@H](C)O)C(=O)N[C@@H](CC(C)C)C(=O)N[C@@H](CS)C(=O)N[C@@H](CCC(=O)O)C(=O)N[C@@H](CC(N)=O)C(=O)N[C@@H](CCC(=O)O)C(=O)N[C@@H](CS)C(=O)N[C@@H](Cc1c[nH]c2ccccc12)C(=O)NCC(N)=O [N-Myc 61-89L83C/L87C red] (Ac-LSPSRGFAEHSSEPPSWVTEMLCENECWG-NH2)	181 ± 9	-1746 ± 74	6 ± 1	–
CSCC[C@H](NC(=O)[C@H](CS)NC(=O)[C@@H](NC(=O)[C@@H](NC(=O)[C@H](Cc1c[nH]c2ccccc12)NC(=O)[C@H](CS)NC(=O)[C@@H]1CCCN1C(=O)[C@@H]1CCCN1C(=O)[C@H](CCC(=O)O)NC(=O)[C@H](CO)NC(=O)[C@H](CO)NC(=O)[C@H](Cc1c[nH]cn1)NC(=O)[C@H](CCC(=O)O)NC(=O)[C@H](C)NC(=O)[C@H](Cc1ccccc1)NC(=O)CNC(=O)[C@H](CCCNC(=N)N)NC(=O)[C@H](CO)NC(=O)[C@@H]1CCCN1C(=O)[C@H](CO)NC(=O)[C@H](CC(C)C)NC(C)=O)C(C)C)[C@@H](C)O)C(=O)N[C@@H](CC(C)C)C(=O)N[C@@H](CC(C)C)C(=O)N[C@@H](CCC(=O)O)C(=O)N[C@@H](CC(N)=O)C(=O)N[C@@H](CCC(=O)O)C(=O)N[C@@H](CC(C)C)C(=O)N[C@@H](Cc1c[nH]c2ccccc12)C(=O)NCC(N)=O [N-Myc 61-89S76C/E80C red] (Ac-LSPSRGFAEHSSEPPCWVTCMLLENELWG-NH2)	140 ± 18	-2428 ± 25	7 ± 1	–
CSCC[C@H](NC(=O)[C@H](CCC(=O)O)NC(=O)[C@@H](NC(=O)[C@@H](NC(=O)[C@H](Cc1c[nH]c2ccccc12)NC(=O)[C@H](CO)NC(=O)[C@@H]1CCCN1C(=O)[C@@H]1CCCN1C(=O)[C@H](CCC(=O)O)NC(C)=O)C(C)C)[C@@H](C)O)C(=O)N[C@@H](CC(C)C)C(=O)N[C@@H](CC(C)C)C(=O)N[C@@H](CCC(=O)O)C(=O)N[C@@H](CC(N)=O)C(=O)N[C@@H](CCC(=O)O)C(=O)N[C@@H](CC(C)C)C(=O)N[C@@H](Cc1c[nH]c2ccccc12)C(=O)NCC(N)=O [N‐Myc73‐89]	–	−4079±71	13±1	-4080
CSCC[C@H](NC(=O)[C@H](CCC(=O)O)NC(=O)[C@@H](NC(=O)[C@@H](NC(=O)[C@H](Cc1c[nH]c2ccccc12)NC(=O)[C@H](CO)NC(=O)[C@@H]1CCCN1C(=O)[C@@H]1CCCN1C(=O)[C@H](COP(=O)(O)O)NC(C)=O)C(C)C)[C@@H](C)O)C(=O)N[C@@H](CC(C)C)C(=O)N[C@@H](CC(C)C)C(=O)N[C@@H](CCC(=O)O)C(=O)N[C@@H](CC(N)=O)C(=O)N[C@@H](CCC(=O)O)C(=O)N[C@@H](CC(C)C)C(=O)N[C@@H](Cc1c[nH]c2ccccc12)C(=O)NCC(N)=O [N‐Myc73‐89‐E73pS]	–	−5394±235	16±1	-5390
CSCC[C@H](NC(=O)[C@H](CCC(=O)O)NC(=O)[C@@H](NC(=O)[C@@H](NC(=O)[C@H](Cc1c[nH]c2ccccc12)NC(=O)[C@H](CO)NC(=O)[C@@H]1CCCN1C(=O)[C@@H]1CCCN1C(=O)[C@H](CCC(=O)O)NC(C)=O)C(C)C)[C@@H](C)O)C(=O)N[C@@H](CC(C)C)C(=O)N[C@@H](CC(C)C)C(=O)N[C@@H](CCC(=O)O)C(=O)N[C@@H](CC(N)=O)C(=O)N[C@H]1CSC2=C(SC[C@@H](C(=O)N3CCC[C@H]3C(=O)N[C@@H](C)C(=O)N[C@@H](CCC(=O)O)C(=O)N[C@@H](CCC(=O)O)C(N)=O)NC(=O)CNC(=O)[C@H](Cc3c[nH]c4ccccc34)NC(=O)[C@H](CC(C)C)NC1=O)C(=O)NC2=O [N‐Myc73‐94‐E86C/S90C (mal)] (Ac-EPPSWVTEMLLENCLWGCPAEE-NH2; linker 14-18 via Maleimide(3,4-diyl))	111 ± 18	–	–	-5720

The remaining molecules from weak to strong by IC50 [1], led by results:

IC50 [1] [µM]	MRE222 (mean residue ellipticity at 222 nm) [2] [deg cm^−1 dmol^−1 res^−1]	% Helicity (estimated) [2] [%]	Molecule	helicity [3]
164 ± 6	-2198 ± 93	7 ± 1	CC(=O)N[C@@H](CC(C)C)C(=O)N[C@@H](CO)C(=O)N1CCC[C@H]1C(=O)N[C@@H](CO)C(=O)N[C@@H](CCCNC(=N)N)C(=O)NCC(=O)N[C@@H](Cc1ccccc1)C(=O)N[C@@H](C)C(=O)N[C@@H](CCC(=O)O)C(=O)N[C@@H](Cc1c[nH]cn1)C(=O)N[C@@H](CO)C(=O)N[C@@H](CO)C(=O)N[C@@H](CCC(=O)O)C(=O)N1CCC[C@H]1C(=O)N1CCC[C@H]1C(=O)N[C@@H](CO)C(=O)N[C@@H](Cc1c[nH]c2ccccc12)C(=O)N[C@H](C(=O)N[C@H](C(=O)N[C@@H](CCC(=O)O)C(=O)N[C@@H](CS)C(=O)N[C@@H](CC(C)C)C(=O)N[C@@H](CC(C)C)C(=O)N[C@@H](CCC(=O)O)C(=O)N[C@@H](CS)C(=O)N[C@@H](CCC(=O)O)C(=O)N[C@@H](CC(C)C)C(=O)N[C@@H](Cc1c[nH]c2ccccc12)C(=O)NCC(N)=O)[C@@H](C)O)C(C)C [N-Myc 61-89M81C/N85C red] (Ac-LSPSRGFAEHSSEPPSWVTECLLECELWG-NH2)	–
79 ± 4	−4886±55	14±1	Ac-EPPSWVTEMLLENELWGSPAEEDAF-NH2 [N‐Myc73‐97]	–
75 ± 8	-1951 ± 84	6 ± 1	CSCC[C@@H]1NC(=O)[C@H](CCC(=O)O)NC(=O)[C@@H](NC(=O)[C@@H](NC(=O)[C@H](Cc2c[nH]c3ccccc23)NC(=O)[C@H](CO)NC(=O)[C@@H]2CCCN2C(=O)[C@@H]2CCCN2C(=O)[C@H](CCC(=O)O)NC(=O)[C@H](CO)NC(=O)[C@H](CO)NC(=O)[C@H](Cc2c[nH]cn2)NC(=O)[C@H](CCC(=O)O)NC(=O)[C@H](C)NC(=O)[C@H](Cc2ccccc2)NC(=O)CNC(=O)[C@H](CCCNC(=N)N)NC(=O)[C@H](CO)NC(=O)[C@@H]2CCCN2C(=O)[C@H](CO)NC(=O)[C@H](CC(C)C)NC(C)=O)C(C)C)CSSC[C@@H](C(=O)N[C@@H](CCC(=O)O)C(=O)N[C@@H](CC(N)=O)C(=O)N[C@@H](CCC(=O)O)C(=O)N[C@@H](CC(C)C)C(=O)N[C@@H](Cc2c[nH]c3ccccc23)C(=O)NCC(N)=O)NC(=O)[C@H](CC(C)C)NC1=O [N-Myc 61-89T79C/L83C ox] (Ac-LSPSRGFAEHSSEPPSWVCEMLCENELWG-NH2; disulfide 19-23)	–
